In PubChem BioAssay (NCI):
Values joined by “and” are separate entries in the source; they are usually repeats but may differ in a detail not shown here. Equal values may be shown once.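 Interpolation was linear, between the two tested concentrations surrounding the appropriate level; five concentrations were tested over 48 hours in 96-well plates. Here, GI50 denotes the concentration required for 50% inhibition of growth. TGI is the concentration that stops growth completely.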

Assays:
Test in all cases: DTP human tumour cell line panel, 48 h
OVCAR-4 ovarian = tested on: OVCAR-4 ovarian
EKVX NSCLC = tested on: EKVX NSCLC
786-0 renal = tested on: 786-0 renal
SK-OV-3 ovarian = tested on: SK-OV-3 ovarian
UACC-62 melanoma = tested on: UACC-62 melanoma
HCC-2998 colon = tested on: HCC-2998 colon
PC-3 prostate = tested on: PC-3 prostate
HL-60(TB) leukemia = tested on: HL-60(TB) leukemia
U251 CNS = tested on: U251 CNS
SN12C renal = tested on: SN12C renal

## CO[C@H](C(=O)[C@@H](O)[C@@H](C)O)[C@@H]1Cc2cc3cc(O[C@H]4C[C@@H](O[C@H]5C[C@@H](O)[C@H](O)C(C)O5)[C@H](O)C(C)O4)c(C)c(O)c3c(O)c2C(=O)[C@H]1O[C@H]1C[C@@H](O[C@H]2C[C@@H](O[C@H]3C[C@](C)(O)C(=O)C(C)O3)[C@@H](O)C(C)O2)[C@H](O)C(C)O1 (stereo partly drawn)
OVCAR-4 ovarian
  GI50: 0.124 µM
  TGI: 7.04 µM
EKVX NSCLC
  GI50: 0.168 µM
  TGI: > 12.3 µM
786-0 renal
  GI50: 0.101 µM
  TGI: 17.1 µM
SK-OV-3 ovarian
  GI50: 0.139 µM
  TGI: > 33.2 µM
UACC-62 melanoma
  GI50: 0.0187 µM
  TGI: 0.102 µM
HCC-2998 colon
  GI50: 0.222 µM
  TGI: 1.72 µM
PC-3 prostate
  GI50: 0.151 µM
  TGI: 32.2 µM
HL-60(TB) leukemia
  GI50: 0.592 µM
  TGI: > 21 µM
U251 CNS
  GI50: 0.031 µM
  TGI: > 33.2 µM
SN12C renal
  GI50: 0.093 µM
  TGI: > 33.2 µM

## CC[C@@]1(O)C[C@H](OC2CC(N(C)C)C(O)C(C)O2)c2c(O)c3c(c(O)c2[C@H]1OC1CC(N(C)C)C(O)C(C)O1)C(=O)c1cccc(O)c1C3=O (stereo partly drawn)
OVCAR-4 ovarian
  GI50: < 0.01 µM
  TGI: 0.601 µM and 0.147 µM
EKVX NSCLC
  GI50: < 0.01 µM
  TGI: 0.538 µM and 0.167 µM
786-0 renal
  GI50: < 0.01 µM
SK-OV-3 ovarian
  GI50: < 0.01 µM
  TGI: 0.375 µM and 0.0643 µM
UACC-62 melanoma
  GI50: < 0.01 µM
  TGI: 0.0711 µM and < 0.01 µM
HCC-2998 colon
  GI50: < 0.01 µM
  TGI: 0.0759 µM and 0.0216 µM
PC-3 prostate
  GI50: < 0.01 µM
HL-60(TB) leukemia
  GI50: 0.0102 µM
U251 CNS
  GI50: < 0.01 µM
SN12C renal
  GI50: < 0.01 µM
  TGI: 1.04 µM

## C=C(CN1CCN(c2ccc(Cl)cc2F)CC1)c1ccc(C(=O)Nc2ccccc2N)cc1
OVCAR-4 ovarian
  TGI: > 66.6 µM
EKVX NSCLC
  GI50: 11.5 µM
  TGI: > 100 µM
786-0 renal
  GI50: 2.28 µM
  TGI: > 100 µM
SK-OV-3 ovarian
  TGI: > 25.7 µM
UACC-62 melanoma
  GI50: 2.42 µM
  TGI: > 92.1 µM
HCC-2998 colon
  GI50: 3.84 µM
  TGI: > 60.5 µM
PC-3 prostate
  GI50: 1.55 µM
  TGI: > 100 µM
HL-60(TB) leukemia
  GI50: 0.794 µM
U251 CNS
  GI50: 1.8 µM
  TGI: 21.5 µM
SN12C renal
  GI50: 1.87 µM
  TGI: > 100 µM

## Nc1ccccc1SC(C[N+](=O)[O-])c1ccc2c(c1)OCO2 (stereo not drawn)
OVCAR-4 ovarian
  TGI: 23.8 µM
EKVX NSCLC
  TGI: 13.3 µM
786-0 renal
  TGI: 3.15 µM
SK-OV-3 ovarian
  TGI: 15.9 µM
UACC-62 melanoma
  TGI: 25.9 µM
HCC-2998 colon
  TGI: 3.17 µM
PC-3 prostate
  TGI: 20.6 µM
HL-60(TB) leukemia
  TGI: 4.6 µM
U251 CNS
  TGI: 8.53 µM
SN12C renal
  TGI: 14.3 µM

## NC(=O)c1sc(-n2cnc3ccccc32)cc1OCc1ccccc1Br
OVCAR-4 ovarian
  GI50: > 25 µM
  TGI: > 25 µM
EKVX NSCLC
  GI50: 17.9 µM
  TGI: > 25 µM
786-0 renal
  GI50: 11.1 µM
  TGI: > 25 µM
SK-OV-3 ovarian
  GI50: 6.94 µM
  TGI: > 25 µM
UACC-62 melanoma
  GI50: 5.88 µM
  TGI: > 25 µM
HCC-2998 colon
  GI50: 6.38 µM
  TGI: > 25 µM
PC-3 prostate
  GI50: 10.3 µM
  TGI: > 25 µM
HL-60(TB) leukemia
  GI50: 1.28 µM
  TGI: > 25 µM
U251 CNS
  GI50: 4.44 µM
  TGI: > 25 µM
SN12C renal
  GI50: 14.2 µM
  TGI: > 25 µM

## Clc1ccc2c(NCCCCNc3nc(N4CCCCC4)nc4ccccc34)ccnc2c1
OVCAR-4 ovarian
  GI50: 1.59 µM
  TGI: 5.24 µM
EKVX NSCLC
  GI50: 2.69 µM
  TGI: 13.8 µM
786-0 renal
  GI50: 1.44 µM
  TGI: 2.76 µM
SK-OV-3 ovarian
  GI50: 3.81 µM
  TGI: 14.4 µM
UACC-62 melanoma
  GI50: 1.79 µM
  TGI: 3.48 µM
HCC-2998 colon
  GI50: 1.96 µM
  TGI: 4.23 µM
PC-3 prostate
  GI50: 3.33 µM
  TGI: 14.6 µM
HL-60(TB) leukemia
  GI50: 1.76 µM
  TGI: 3.52 µM
U251 CNS
  GI50: 2.02 µM
  TGI: 4.56 µM
SN12C renal
  GI50: 2.78 µM
  TGI: 12.7 µM

## O=C1/C(=C/c2cccc([N+](=O)[O-])c2)COc2ccc(O)cc21
OVCAR-4 ovarian
  GI50: 3.3 µM
  TGI: 11.1 µM
EKVX NSCLC
  GI50: 3.86 µM
  TGI: 13.7 µM
786-0 renal
  GI50: 1.85 µM
  TGI: 3.83 µM
SK-OV-3 ovarian
  GI50: 4.64 µM
  TGI: 15.9 µM
UACC-62 melanoma
  GI50: 1.92 µM
  TGI: 4.03 µM
HCC-2998 colon
  GI50: 1.75 µM
  TGI: 3.21 µM
PC-3 prostate
  GI50: 2.15 µM
  TGI: 5.45 µM
HL-60(TB) leukemia
  GI50: 1.69 µM
  TGI: 4.03 µM
U251 CNS
  GI50: 1.56 µM
  TGI: 2.9 µM
SN12C renal
  GI50: 1.79 µM
  TGI: 3.47 µM

## CCCCCN(CCCCC)CC(O)c1cc(C)c2ccc3cc(C(C)C)ccc3c2c1 (stereo not drawn)
OVCAR-4 ovarian
  GI50: 1.92 µM
  TGI: 3.75 µM
EKVX NSCLC
  GI50: 1.76 µM
  TGI: 3.34 µM
786-0 renal
  GI50: 1.79 µM
  TGI: 3.41 µM
SK-OV-3 ovarian
  GI50: 1.72 µM
  TGI: 3.46 µM
UACC-62 melanoma
  GI50: 1.71 µM
  TGI: 3.47 µM
HCC-2998 colon
  GI50: 1.85 µM
  TGI: 3.4 µM
PC-3 prostate
  GI50: 1.59 µM
  TGI: 3.08 µM
HL-60(TB) leukemia
  GI50: 2.04 µM
  TGI: 4.02 µM
U251 CNS
  GI50: 1.9 µM
  TGI: 3.82 µM
SN12C renal
  GI50: 1.75 µM
  TGI: 3.59 µM

## c1ccc2cc(-c3cc(-c4cc(-c5ccc6ccccc6c5)on4)no3)ccc2c1
OVCAR-4 ovarian
  TGI: > 100 µM
EKVX NSCLC
  TGI: > 100 µM
786-0 renal
  TGI: > 100 µM
SK-OV-3 ovarian
  TGI: > 100 µM
UACC-62 melanoma
  TGI: > 100 µM
HCC-2998 colon
  TGI: > 100 µM
PC-3 prostate
  TGI: > 100 µM
HL-60(TB) leukemia
  TGI: > 100 µM
U251 CNS
  TGI: > 100 µM
SN12C renal
  TGI: > 100 µM
